pEC50: −log10 of the molar value. Like-named read-outs stand apart in the source and are kept apart here.
Target: T1, human OX2R (Homo sapiens, UniProt O43614)
T1 construct: expressed in transfected cells; host or cells: CHO (Chinese hamster ovary) cells, grown under G418 selection
T1 sequence (O43614 1-444): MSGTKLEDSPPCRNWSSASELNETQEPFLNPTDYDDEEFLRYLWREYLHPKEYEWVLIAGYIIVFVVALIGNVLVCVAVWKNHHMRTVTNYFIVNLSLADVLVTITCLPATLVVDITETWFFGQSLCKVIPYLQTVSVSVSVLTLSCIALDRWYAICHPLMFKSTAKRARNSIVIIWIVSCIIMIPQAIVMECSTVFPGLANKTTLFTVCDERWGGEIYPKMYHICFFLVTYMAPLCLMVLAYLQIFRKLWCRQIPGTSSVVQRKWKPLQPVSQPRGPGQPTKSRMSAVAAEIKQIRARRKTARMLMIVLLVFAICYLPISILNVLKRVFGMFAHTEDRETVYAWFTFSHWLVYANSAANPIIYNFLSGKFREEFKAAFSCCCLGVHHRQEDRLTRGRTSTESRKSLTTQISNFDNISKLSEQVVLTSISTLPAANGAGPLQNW
Test: IPOne (IP-1 accumulation) assay in CHO cells expressing human OX2R
Assay type: cell-based
Conditions: for Emax, % of reference agonist: OX2R, percentage of sample raw value/mean max effect (reference compound at 1 uM with 100% activity)
From the text: The utility of the compounds in accordance with the present invention as orexin receptor OX1R and/or OX2R agonists may be readily determined without undue experimentation by methodology well known in the art. Both the OX1R and/or OX2R G-coupled protein receptors (GPCRs) couple through the Gaq signaling pathway, which ultimately promotes calcium mobilization via inositol triphosphate (IP3) production. The half-life of IP-3 is relatively short, being rapidly metabolized to inositol monophosphate (IP-1), which can be readily detected using a commercially available assay kit (IP-One; Cisbio; cat #621PAPEC) coupled with a cell line expressing the target receptor(s) of interest. The utility of the compounds in accordance with the present invention as orexin receptor OX1R and/or OX2R agonists may be determined utilizing this assay.
In a typical experiment, the OX1 and OX2 receptor agonist activity is determined in accordance with the following general experimental method. Chinese hamster ovary (CHO) cells expressing human OX1R and/or the human OX2R were grown in Iscove's modified DMEM containing glutaMAX™, 1% G418, 100 U/mL penicillin, 100 μg/mL streptomycin and 10% heat-inactivated qualified fetal bovine serum (FBS). The OX2R cells were seeded at 10,000 cells/well/50 μL and the OX1R cells were seeded at 20,000 cells/well/50 μL into 384-well white tissue culture plates (Greiner; cat #781080). All cell/media reagents were from GIBCO-Invitrogen Corp. The seeded cell plate(s) were incubated at 37° C. with 5% CO2 and 85% humidity for 20-24 hours. On the day of the assay, assay-ready compound plates were prepared using an acoustic liquid handler (ECHO; Labcyte), which dispensed sufficient volume of test compound stock (10 mM in DMSO) or 100% DMSO to prepare 10 point, ½-log dilutions in a final volume of 202.5 nL/well in all test wells of a 384-well diamond plate (Labcyte). Following completion of assay-ready plates, importantly, the next three steps were performed with minimal delay: 1) 20 μl of 1× stimulation buffer was added to the compound plate using a Multidrop Combi (small cassette, Thermo Fisher Scientific cat #24073290); 2) culture medium was removed from the cell plate using the Bluewasher plate washer (gentle spin; BlueCatBio); 3) 14 μl of compound/stimulation buffer mixture was added to the cell plate using a Bravo liquid handler (Agilent) prior to incubating cell plates at 37° C. with 5% CO2 and 85% humidity for 1 or 2 hours (OX1R and OX2R, respectively). During this incubation, IP-one detection reagents were prepared (38:1:1 lysis buffer:D2:AB-cryptate reagents). Six μL of mixed detection reagents were added to the cell plate using a Multidrop Combi (small cassette, Thermo Fisher Scientific cat #24073290) and incubated 60 minutes at room temperature in the dark. Fluorescence signal was detected using an Envision plate reader (Perkin Elmer) [LANCE/DELFIA Dual Enh (Em: APC 665; Ex: Cy5 620)].
For each compound, data were fit to a four parameter logistic fit (ActivityBase software) and the EC50 was reported as the inflection point of the resulting curve. Percent effect for each test compound was determined as the percentage of sample raw value/mean max effect, where the mean max effect was derived from the mean raw value of 32 control wells per assay plate (using Orexin A (cat #003-30) at 1 μM for human OX1R and a reference compound at 1 uM with 100% activity previously established by comparison to Orexin A for human OX2R). The intrinsic orexin receptor agonist activity of a compound which may be used in the present invention may be determined by these assays.

[1] = CHO cells expressing human OX2R, IP-One assay, 2 hours incubation, four parameter logistic fit, read-out: OX2R Potency, EC50

SMILES	pEC50 [1]	Emax, % of reference agonist [%]	OX2R Potency, EC50 (nM) (CHO cells expressing human OX2R, IP-One assay, 2 hours incubation, four parameter logistic fit)	pEC50
CS(=O)(=O)N[C@H]1CCN(C(=O)NCC2CCC2)[C@H]1CO[C@H]1CC[C@@H](c2ccccc2)CC1 (relative stereo) [Example 21, (CIS)-N-(cyclobutylmethyl)-3-(methylsulfonamido)-2-((((CIS)-4-phenylcyclohexyl)oxy)-methyl)pyrrolidine-1-carboxamide]	8.25	103.2	–	–
CS(=O)(=O)N[C@H]1CCN(C(=O)OCC(F)F)[C@H]1CO[C@H]1CC[C@@H](c2ccccc2)CC1 (relative stereo) [Example 23, 2,2-difluoroethyl (CIS)-3-(methylsulfonamido)-2-((((CIS)-4-phenylcyclohexyl)oxy)methyl)-pyrrolidine-1-carboxylate]	7.22	101.3	–	–
CS(=O)(=O)N[C@H]1CCN(C(=O)CO)[C@H]1CO[C@H]1CC[C@@H](c2ccccc2)CC1 (relative stereo) [Example 25, N-((CIS)-1-(2-hydroxyacetyl)-2-((((CIS)-4-phenylcyclohexyl)oxy)methyl)pyrrolidin-3-yl)methanesulfonamide]	6.44	103.3	–	–
CS(=O)(=O)N[C@H]1CCN(C(=O)OCC(F)F)[C@H]1CO[C@H]1CC[C@@H](c2ccccc2)CC1 [Example 12, 2,2-difluoroethyl (2R,3S)-3-(methylsulfonamido)-2-((((CIS)-4-phenylcyclohexyl)oxy)methyl) pyrrolidine-1-carboxylate]	7.09	101.1	–	–
CCNC(=O)N1CC[C@H](NS(C)(=O)=O)[C@@H]1COC1CCC(C(C)C)CC1 (stereo partly drawn) [Example 28, (2R,3S)—N-ethyl-2-(((4-isopropylcyclohexyl)oxy)methyl)-3-(methylsulfonamido)pyrrolidine-1-carboxamide]	–	99.8	–	7.24

Further lines, with some results ahead:

pEC50 [1]	Emax, % of reference agonist [%]	OX2R Potency, EC50 (nM) (CHO cells expressing human OX2R, IP-One assay, 2 hours incubation, four parameter logistic fit)	SMILES	pEC50
6.60	99.6	–	CS(=O)(=O)N[C@H]1CCN(C(=O)NC2CC2)[C@H]1CO[C@H]1CC[C@@H](c2ccccc2)CC1 (relative stereo) [Example 22, (CIS)-N-cyclopropyl-3-(methylsulfonamido)-2-((((CIS)-4-phenylcyclohexyl)oxy)methyl)pyrrolidine-1-carboxamide]	–
6.31	100.2	–	CS(=O)(=O)N[C@H]1CCN(C(=O)OCC(F)(F)F)[C@H]1CO[C@H]1CC[C@@H](c2ccccc2)CC1 (relative stereo) [Example 24, 2,2,2-trifluoroethyl (CIS)-3-(methylsulfonamido)-2-((((CIS)-4-phenylcyclohexyl)oxy)methyl)pyrrolidine-1-carboxylate]	–
–	17.1	INACTIVE	CS(=O)(=O)N[C@H]1CCN(C(=O)C2CC2)C1COC1CCC(c2ccccc2)CC1 (single isomer, unassigned) [Example 26]	–
7.31	100.2	–	CS(=O)(=O)N[C@H]1CCN(C(=O)C2CC2)C1COC1CCC(c2ccccc2)CC1 (single isomer, unassigned) [Example 27]	–
6.45	99.0	–	COC(=O)N1CCC(NS(C)(=O)=O)[C@@H]1COC1CCC(C(C)C)CC1 (stereo in doubt) [Example 29, methyl (2R,3R)-2-(((4-isopropylcyclohexyl)oxy)methyl)-3-(methylsulfonamido)pyrrolidine-1-carboxylate]	–
6.94	100.2	–	COC(=O)N1CC[C@H](NS(C)(=O)=O)[C@@H]1CO[C@H]1CC[C@@H](c2ccccc2)CC1 [Example 11, methyl (2R,3S)-3-(methylsulfonamido)-2-((((CIS)-4-phenylcyclohexyl)oxy)methyl) pyrrolidine-1-carboxylate]	–
6.36	100.6	–	CC(C)C1CCC(OC[C@H]2[C@@H](NS(C)(=O)=O)CCN2C(=O)C2CC2)CC1 (stereo partly drawn) [Example 30, N-((2R,3S)-1-(cyclopropanecarbonyl)-2-(((4-isopropylcyclohexyl)oxy)methyl)pyrrolidin-3-yl)methanesulfonamide]	–

From patent US12331018B2, “Pyrrolidine orexin receptor agonists” (Merck Sharp & Dohme LLC, priority 2019, dated 2025)
